# Values quoted from earlier work in patent publication US20230048954A1, “COMPOSITIONS FOR REMOVING NECROTIC OR INFECTED TISSUES FROM BODY SURFACE LESIONS” (priority 2020, published 2023).
# Conditions: at a temperature of 25° C.
row,SMILES,pKa
1,CCCS(=O)(=O)O [1-Propanesulfonic acid],−0.86
2,O=[N+]([O-])O [Nitric],−1.4
